ChEMBL document CHEMBL5038569, “Targeting RECQL5 Functions, by a Small Molecule, Selectively Kills Breast Cancer in Vitro and in Vivo” (J Med Chem, 2021)
The source made the active and inactive calls. The rule behind the calls is not given here.

Assays:
U2OS = test: Cytotoxicity against human U2OS cells expressing wild type RECQL5 and p53 mutant assessed as reduction in colony formation measured after 8 to 10 days by clonogenic survival assay; format: functional, cell-based; conditions: time 8-10 day
MCF7 [1] = test: Inhibition of homologous recombinant repair in RECQL5 knock out human MCF7 cells expressing SceGFP/iGFP mutants assessed as I-SceI induced generation of resected double stand breaks by measuring GFP-expressing cells at 10 uM measured after 48 hrs by flow cytometry analysis; format: functional, cell-based
MCF7 [2] = test: Inhibition of homologous recombinant repair in human MCF7 cells expressing RECQL5 wildtype/ SceGFP/iGFP mutants assessed as I-SceI induced generation of resected double stand breaks by measuring GFP-expressing cells at 10 uM measured after 48 hrs by flow cytometry analysis; format: functional, cell-based
MCF7 [3] = test: Cytotoxicity against human MCF7 cells expressing wild type RECQL5 assessed as inhibition of colony formation measured after 8 to 10 days by clonogenic survival assay; format: functional, cell-based
MCF7 [4] = test: Cytotoxicity against human MCF7 cells expressing RECQL5 assessed as cell growth inhibition measured after 72 hrs by MTT assay; format: functional
[5] = Toxicity in […] mouse assessed as fold change in creatinine level at 100 mg/kg, po administered as single dose via gavage measured after 30 days relative to control; format: organism-based; conditions: in vivo, 720 h, time 30 day
MCF7 [6] = test: Induction of DNA damage in RECQL5 knock out human MCF7 cells assessed as double strand breaks by measuring increase in phosphorylation of RPA2 at 20 uM measured after 4 to 24 hrs by Western blot analysis; format: functional, cell-based; conditions: time 4-24 hrs
[7] = Toxicity in […] mouse assessed as fold change in SGPT level at 100 mg/kg, po administered as single dose via gavage measured after 30 days relative to control; format: organism-based; conditions: in vivo, 720 h, time 30 day
[8] = Toxicity in […] mouse assessed as fold change in spleen cell count at 100 mg/kg, po administered as single dose via gavage measured after 30 days relative to control; format: organism-based; conditions: in vivo, 720 h, time 30 day
MCF7 [9] = test: Cytotoxicity against RECQL5 knock out human MCF7 cells assessed as inhibition of colony formation measured after 8 to 10 days by clonogenic survival assay; format: functional, cell-based
T47D [10] = test: Cytotoxicity against ER/PR-positive HER2-negative CRISPR/Cas9 engineered human T47D cells expressing wild type RECQL5 and p53 mutant assessed as reduction in colony formation measured after 8 to 10 days by clonogenic survival assay; format: functional, cell-based; conditions: time 8-10 day
[11] = Chronic toxicity in […] mouse assessed as change in behavior at 100 mg/kg, po administered as single dose via gavage measured for 30 days; format: organism-based; conditions: in vivo, 720 h, time 30 day
[12] = Toxicity in nude mouse xenografted with human MCF7 cells assessed as body weight loss at 50 mg/kg, po administered via oral gavage for 30 days and measured every 5 days; format: organism-based; conditions: in vivo, 720 h, time 30 day
MCF7 [13] = test: Reversal of RECQL5 knock out resistance phenotype in human MCF7 cells expressing RFP assessed as reduction in cell viability at 6 to 25 uM measured after 72 hrs by MTT assay; format: functional, cell-based; conditions: dose 6-25 µM
MCF7 [14] = test: Cytotoxicity against human MCF7 cells with shRNA-mediated RECQL5 depletion assessed as reduction in cell viability at 6 to 25 uM measured after 8 to 10 days by clonogenic survival assay; format: functional, cell-based; conditions: dose 6-25 µM, time 8-10 day
MCF7 [15] = test: Cytotoxicity against human MCF7 cells with shRNA-mediated BLM depletion assessed as reduction in cell viability at 6 to 25 uM measured after 8 to 10 days by clonogenic survival assay; format: functional, cell-based; conditions: dose 6-25 µM, time 8-10 day
[16] = Inhibition of full length His-tagged human RECQL5 expressed in Escherichia coli incubated for 15 mins by fluorescence based assay
MCF7 [17] = test: Cytotoxicity against human MCF7 cells expressing RECQL5-RFP K58M helicase dead mutant assessed as sensitizing activity by measuring colony survival at 5 to 20 uM measured after 8 to 10 days by clonogenic survival assay; format: functional, cell-based; conditions: dose 5-20 µM, time 8-10 day
MDA-MB-231 = test: Induction of apoptosis in RECQL5 depleted human MDA-MB-231 cells assessed as cell death measured after 72 hrs by propidium iodide/RNase A staining based flow cytometric analysis; format: functional
T47D [18] = test: Induction of DNA damage in RECQL5 knock out human T47D cells assessed as double strand breaks by measuring increase in gamma-H2AX foci formation incubated for 24 hrs by immunofluorescence microscopic analysis; format: functional, cell-based
MCF7 [19] = test: Induction of DNA damage in human MCF7 cells expressing wild type RECQL5 assessed as double strand breaks by measuring increase in phosphorylation of CHK2 at T68 residue at 20 uM measured up to 24 hrs by Western blot analysis; format: functional, cell-based; conditions: time hrs <=24
MCF7 [20] = test: Induction of DNA damage in human MCF7 cells expressing wild type RECQL5 assessed as double strand breaks by measuring increase in phosphorylation of ATM at S1981 residue at 20 uM measured up to 24 hrs by Western blot analysis; format: functional, cell-based; conditions: time hrs <=24
MCF7 [21] = test: Induction of DNA damage in human MCF7 cells expressing wild type RECQL5 assessed as double strand breaks by measuring increase in phosphorylation of ATR at S428 residue at 20 uM measured up to 24 hrs by Western blot analysis; format: functional, cell-based; conditions: time hrs <=24
MCF7 [22] = test: Induction of DNA damage in RECQL5 knock out human MCF7 cells assessed as double strand breaks by measuring increase in phosphorylation of p53 at S15 residue at 20 uM measured up to 24 hrs by Western blot analysis; format: functional, cell-based; conditions: time hrs <=24
MCF7 [23] = test: Effect on NHEJ-mediated double strand break repair in RECQL5 knock out human MCF7 cells assessed as accumulation of KU80 on chromatin at 20 uM measured up to 24 hrs by Western blot analysis; format: cell-based; conditions: time hrs <=24
MCF7 [24] = test: Effect on homologous recombinant repair in human MCF7 cells expressing wild type RECQL5 assessed as accumulation of NBS1 protein on chromatin at 20 uM incubated for 4 to 24 hrs by Western blot analysis; format: functional, cell-based; conditions: time 4-24 hrs, TDE = time-dependent effect
MCF7 [25] = test: Stabilization of RECQL5-RAD51 complex in human MCF7 cells expressing wild type RECQL5 assessed as increase in accumulation of chromatin-bound RECQL5 and RAD51 at 20 uM measured after 4 to 24 hrs by Western blot analysis; format: cell-based; conditions: time 4-24 hrs, TDE = time-dependent effect
T47D [26] = test: Stabilization of RECQL5-RAD51 complex in RECQL5 knock out human T47D cells expressing wild type RECQL5-FLAG assessed as increase in RAD51-RECQL5-FLAG pull down at 20 uM measured after 8 hrs by coimmunoprecipitation assay; format: cell-based
MCF7 [27] = test: Cytotoxicity against RECQL5 knock out human MCF7 cells expressing wild type RECQL5-FLAG assessed as reduction in colony formation at 10 uM measured after 8 to 10 days by clonogenic survival assay; format: functional, cell-based; conditions: time 8-10 day
MCF7 [28] = test: Induction of mitotic catastrophe phenotype in human MCF7 cells assessed as nuclear bridge formation at 20 uM pretreated with cisplatin for 8 hrs followed by compound addition and measured after 24 hrs by immunofluorescence microscopic analysis; format: functional, cell-based
MCF7 [29] = test: Induction of mitotic catastrophe phenotype in human cisplatin-resistant MCF7 cells assessed as micronucleus formation at 20 uM pretreated with cisplatin for 8 hrs followed by compound addition and measured after 24 hrs by immunofluorescence microscopic analysis; format: functional, cell-based

O=C(Nc1cc(C(F)(F)F)cc(C(F)(F)F)c1)N[C@@H](c1ccccc1)c1nnc(SCc2ccccc2)o1
Activity (U2OS): Active
inhibition (MCF7 [1]): inactive
inhibition (MCF7 [2]): Active
IC50 (MCF7 [3]): 4.8 µM
IC20 (MCF7 [4]): 8.4 µM
fold change (FC) [5]: 1.05
Activity (MCF7 [6]): inactive
fold change (FC) [7]: 0.92
fold change (FC) [8]: 1.03
IC50 (MCF7 [9]): 19.6 µM
Activity (T47D [10]): Active
Activity [11]: Non-Toxic
Activity [12]: Non-Toxic
Activity (MCF7 [13]): inactive
Activity (MCF7 [14]): inactive
Activity (MCF7 [15]): Active
IC50 [16]: 0.0463 µM
Activity (MCF7 [17]): Active
Activity (MDA-MB-231): inactive
Activity (T47D [18]): inactive
Activity (MCF7 [19]): Active
Activity (MCF7 [20]): Active
Activity (MCF7 [21]): Active
Activity (MCF7 [22]): inactive
Activity (MCF7 [23]): inactive
Activity (MCF7 [24]): Tde
Activity (MCF7 [25]): Tde
Activity (T47D [26]): Active
Activity (MCF7 [27]): Active
Activity (MCF7 [28]): Active
Activity (MCF7 [29]): Active
